Assay results as given in a melting point compilation (Tetko et al.; mined from patent text by program, amines drawn as free bases though some values may be those of a salt).

First: C1=CNC(C(c2ccccc2)c2ccccc2)=C(NCc2ccccc2)C=C1
Second: Nc1cc(C(=O)O)cc(SCc2ccsc2)c1Oc1ccccc1
The melting point of the first is higher: 186 to 187 °C for the first, 153 to 155 °C for the second.

First: CCS(=O)(=O)CCC(=O)NNC(=O)N1Cc2cccc(Cl)c2Oc2ccccc21
Second: CCOC(=O)c1ccccc1N(CC(=O)OC(C)(C)C)C(=O)CN1C(=O)c2ccccc2C1=O
The melting point of the first is higher: 195 to 197 °C for the first, 127 °C for the second.

First: Cc1ccc(C)c(-c2ccc(C#N)c(C)c2)c1
Second: Cc1ccc(C)c(CNc2cccc(S(=O)(=O)O)c2)c1
The melting point of the first is lower: 96 to 97 °C for the first, greater than 275 °C for the second.

Compared with `COC(=O)[C@H](CC(=O)OC(C)(C)C)NC(=O)c1cccc(NC(=O)OCc2ccccc2)c1`, `CCCCCCCCCCCCC[C@@H](CC(N)=O)OC(=O)[C@H](CCCC(=O)OCc1ccccc1)NC(=O)c1cnc2ccccc2c1` is lower in melting point: 115 to 116 °C for the first, 85 to 87 °C for the second.

Compared with `CN(C)c1nc(=O)n(-c2cc(OCc3ccccc3)c(Cl)cc2F)c(=O)n1C`, `CC(C)Cn1c(=O)n(C)c(=O)c2cc(Cc3ccccc3)sc21` is lower in melting point: 193 to 194 °C for the first, 72 to 73 °C for the second.

First: Cc1ccc(S(=O)(=O)OCC2Cc3cccc(C=Cc4ccccc4)c3O2)cc1 (stereo unspecified)
Second: Cc1cc(-c2ccc(C(F)(F)F)cc2)cc(-c2ccnc(-c3cccc(S(N)(=O)=O)c3)c2)n1
The melting point of the first is lower: 120 to 122 °C for the first, greater than 250 °C for the second.

Compared with `N#CCc1cc(F)cc(Cc2nc3c(F)c(F)cc(F)c3s2)c1`, `N#Cc1ncn2c(C(F)(F)F)cc(-c3ccc(Cl)cc3Cl)nc12` is higher in melting point: 91 to 94 °C for the first, 139 °C for the second.

First: CN1C(=O)C2(COc3cc4c(cc32)OCCO4)c2c(Oc3ncccc3C(F)(F)F)cccc21 (stereo unspecified)
Second: c1ccc2c(c1)OCC(c1ncc[nH]1)O2 (stereo unspecified)
The melting point of the first is higher: greater than 250 °C for the first, 225 to 227 °C for the second.

`CC(C)(C)OC(=O)NCc1ccc([N+](=O)[O-])cc1` and `COC(=O)c1c(Sc2ccc(Cl)cc2)c2cc(C)ccc2n1C` fall in the same range of melting point: 110 to 111 °C for the first, 110 to 111 °C for the second.

First: O=C(O)Cc1cc(C(=O)C=Cc2ccc(Cl)cc2)ccc1O
Second: CCCCC(Cc1ccc(OCCNC(=O)c2ccc(-c3ccc(C=O)cc3)cc2)cc1)C(=O)O (stereo unspecified)
The melting point of the first is higher: 244 °C for the first, 122 to 124 °C for the second.

First: CCCCNC(=S)Nc1ccccc1N1CCOCC1
Second: CC(C)NC(=O)[C@@H]1CCCN1C(=O)[C@H](C)NC(=O)OCc1ccccc1
The melting point of the first is lower: 105 °C for the first, 124 to 126 °C for the second.

First: CC(=O)Nc1cccc(C(=O)Nc2cc(NC(=O)c3cccc(N(C)C)c3)ccc2C)c1
Second: CCOc1cc2c(Nc3ccc(OC)cc3)c(CO)cnc2nc1C
The melting point of the first is lower: 178 to 179 °C for the first, 193 to 197 °C for the second.

Compared with `OCc1csc(=S)n1-c1ccc(F)c(F)c1F`, `C=CCc1c(C(F)(F)F)[nH]n(-c2ccc(Br)c(Cl)c2)c1=O` is higher in melting point: 113 to 116 °C for the first, 117 °C for the second.

Compared with `Cc1cc2c(S(C)(=O)=O)nc(OCC(F)(F)F)nc2s1`, `CS(=O)(=O)c1ccc(-c2cnn(CC(F)(F)F)c(=O)c2NCCC#N)cc1` is higher in melting point: 138 to 140 °C for the first, 172 to 174 °C for the second.

First: COC(=S)C(C)=CNc1ccc(OC)c(Cl)c1
Second: COc1cc(Nc2c(C#N)cnc3cc(/C=C/C(=O)O)sc23)c(Cl)cc1Cl
The melting point of the first is lower: 110 to 112 °C for the first, greater than 250 °C for the second.

Compared with `Cc1cc(CCCCCOc2cc(Cl)c(-c3nnc(C)o3)c(Cl)c2)on1`, `CCOC(=O)c1cnc2sccc2c1Sc1nnc(C)s1` is higher in melting point: 71 to 72 °C for the first, 93 to 94 °C for the second.

Compared with `Cc1noc(C2CC2)c1I`, `CCCC1CCC(/C(F)=C(\F)c2ccc(OCC)c(F)c2F)CC1` (stereo unspecified) is lower in melting point: 71 °C for the first, 60 °C for the second.

Compared with `Cn1cc(Br)cc(Br)c1=O`, `CC(C)Cn1nc(-c2ccccc2)cc(C(=O)O)c1=O` is higher in melting point: 87 to 88 °C for the first, 120 to 121 °C for the second.

First: CCCCCCCCCCCCCCCCC(Cl)C(=O)O (stereo unspecified)
Second: CC(=O)CCCN1CC[C@H](CNC(=O)c2cc(Cl)c(N)c3c2OCC3)[C@H](O)C1 (relative stereo)
The melting point of the first is lower: 63.5 to 64 °C for the first, 118 °C for the second.

Compared with `O=C(Oc1ccc(F)cc1)Oc1ccc(F)cc1`, `Nc1ccc(C(=O)NC2CCN(CCCn3cnc4c(N)ncnc43)CC2)cc1` is higher in melting point: 122 to 123 °C for the first, 247 to 248 °C for the second.

Compound `CNc1ncc([N+](=O)[O-])c(Cl)n1` has a melting point of 172 to 173 °C.
